Counter-ions that a name gives are not always drawn.
Target: Recombinant human factor D (Homo sapiens (Human), UniProt P00746)
Test: Human Complement Factor D Assay: Method 1
Format: biochemical
Conditions: 10 nM factor D, substrate Z-Lys-thiobenzyl, fluorescence readout, read-out: IC50 (μM), Factor D inhibition
Procedure: Human Complement Factor D Assay: Method 1
Recombinant human factor D (expressed in E. coli and purified using standard methods) at 10 nM concentration is incubated with test compound at various concentrations for 1 hour at room temperature in 0.1 M Hepes buffer, pH 7.5, containing 1 mM MgCl2, 1 M NaCl and 0.05% CHAPS. A synthetic substrate Z-Lys-thiobenzyl and 2,4-dinitrobenzenesulfonyl-fluoresceine are added to final concentrations of 200 μM and 25 μM, respectively. The increase in fluorescence is recorded at excitation of 485 nm and emission at 535 nm in a microplate spectrofluorimeter. IC50 values are calculated from percentage of inhibition of complement factor D-activity as a function of test compound concentration.

Sequence of Recombinant human factor D (P00746 26-253): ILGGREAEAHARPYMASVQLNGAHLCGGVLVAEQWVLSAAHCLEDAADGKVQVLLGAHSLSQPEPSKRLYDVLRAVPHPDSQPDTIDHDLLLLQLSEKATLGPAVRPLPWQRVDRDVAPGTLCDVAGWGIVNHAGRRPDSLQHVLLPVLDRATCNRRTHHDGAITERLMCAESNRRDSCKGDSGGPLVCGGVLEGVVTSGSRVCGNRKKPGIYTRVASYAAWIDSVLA

| SMILES | IC50 |
| --- | --- |
| CC(C)(C)CCNC(=O)[C@@H]1C[C@H]2C[C@H]2N1C(=O)Cn1nc(C(N)=O)c2ccccc21 [Example 1, 1-{2-[(1R,3S,5R)-3-(3,3-Dimethyl-butylcarbamoyl)-2-aza-bicyclo[3.1.0]hex-2-yl]-2-oxo-ethyl}-1H-indazole-3-carboxylic acid amide] | 0.061 µM |
| CC(=O)c1nn(CC(=O)N2[C@@H]3C[C@@H]3C[C@H]2C(=O)NCCCOC(F)(F)F)c2ccccc12 [Example 2, (1R,3S,5R)-2-[2-(3-Acetyl-indazol-1-yl)-acetyl]-2-aza-bicyclo[3.1.0]hexane-3-carboxylic acid (3-trifluoromethoxy-propyl)-amide] | 0.605 µM |
| CO[C@H]1[C@@H](C(=O)NCCC(C)(C)C)N(C(=O)Cn2nc(C(N)=O)c3ccccc32)C[C@@H]1F [Example 3, 1-{2-[(2S,3S,4S)-2-(3,3-Dimethyl-butylcarbamoyl)-4-fluoro-3-methoxy-pyrrolidin-1-yl]-2-oxo-ethyl}-1H-indazole-3-carboxylic acid amide] | 0.103 µM |
| CO[C@H]1[C@@H](C(=O)NCCC(C)(C)C)N(C(=O)Cn2nc(C(N)=O)c3cc(C)ncc32)C[C@@H]1F [Example 4, 1-{2-[(2S,3S,4S)-2-(3,3-Dimethyl-butylcarbamoyl)-4-fluoro-3-methoxy-pyrrolidin-1-yl]-2-oxo-ethyl}-5-methyl-1H-pyrazolo[3,4-c]pyridine-3-carboxylic acid amide] | 0.161 µM |
| CO[C@H]1[C@@H](C(=O)NCCC(C)(C)C)N(C(=O)Cn2nc(C(C)=O)c3ccccc32)C[C@@H]1F [Example 5, (2S,3S,4S)-1-[2-(3-Acetyl-indazol-1-yl)-acetyl]-4-fluoro-3-methoxy-pyrrolidine-2-carboxylic acid (3,3-dimethyl-butyl)-amide] | 0.088 µM |
| CC(C)(C)CCNC(=O)[C@@H]1C[C@H]2C[C@H]2N1C(=O)Cn1nc(C(N)=O)c2ccncc21 [Example 6, 1-{2-[(1R,3S,5R)-3-(3,3-Dimethyl-butylcarbamoyl)-2-aza-bicyclo[3.1.0]hex-2-yl]-2-oxo-ethyl}-1H-pyrazolo[3,4-c] pyridine-3-carboxylic acid amide] | 0.168 µM |
| CC(=O)c1nn(CC(=O)N2[C@@H]3C[C@@H]3C[C@H]2C(=O)NCCC(C)(C)C)c2cnccc12 [Example 7, (1R,3S,5R)-2-[2-(3-Acetyl-pyrazolo[3,4-c]pyridin-1-yl)-acetyl]-2-aza-bicyclo[3.1.0] hexane-3-carboxylic acid (3,3-dimethyl-butyl)-amide] | 0.068 µM |
| CC(=O)c1nn(CC(=O)N2[C@@H]3C[C@@H]3C[C@H]2C(=O)NCCC(C)(C)C)c2ccc(OCc3ncccn3)cc12 [Example 8, (1R,3S,5R)-2-{2-[3-Acetyl-5-(pyrimidin-2-ylmethoxy)-indazol-1-yl]-acetyl}-2-aza-bicyclo[3.1.0]hexane-3-carboxylic acid (3,3-dimethyl-butyl)-amide] | 0.009 µM |
| C[Si](C)(C)CCNC(=O)[C@@H]1C[C@H]2C[C@H]2N1C(=O)Cn1nc(C(N)=O)c2ccncc21 [Example 9, 1-{2-Oxo-2-[(1R,3S,5R)-3-(2-trimethylsilanyl-ethylcarbamoyl)-2-aza-bicyclo[3.1.0]hex-2-yl)-ethyl}-1H-pyrazolo[3,4-c] pyridine-3-carboxylic acid amide] | 0.153 µM |
| CC(C)(O)CCNC(=O)[C@@H]1C[C@H]2C[C@H]2N1C(=O)Cn1nc(C(N)=O)c2ccncc21 [Example 10, 1-{2-[(1R,3S,5R)-3-(3-Hydroxy-3-methyl-butylcarbamoyl)-2-aza-bicyclo[3.1.0]hex-2-yl]-2-oxo-ethyl}-1H-pyrazolo[3,4-c] pyridine-3-carboxylic acid amide trifluoroacetate] | 5.67 µM |
| CO[C@@H]1CN(C(=O)Cn2nc(C(N)=O)c3ccccc32)[C@H](C(=O)NCCC(C)(C)C)[C@H]1F [Example 11, 1-{2-[(2R,3R,4R)-2-(3,3-Dimethyl-butylcarbamoyl)-3-fluoro-4-methoxy-pyrrolidin-1-yl]-2-oxo-ethyl}-1H-indazole-3-carboxylic acid amide] | 14.6 µM |
| CCNC(=O)[C@@H]1C[C@H]2C[C@H]2N1C(=O)Cn1nc(C(N)=O)c2ccncc21 [Example 12, 1-[2-((1R,3S,5R)-3-Ethylcarbamoyl-2-aza-bicyclo [3.1.0]hex-2-yl)-2-oxo-ethyl]-1H-pyrazolo[3,4-c]pyridine-3-carboxylic acid amide] | 7.22 µM |
| CCNC(=O)[C@@H]1C[C@H]2C[C@H]2N1C(=O)Cn1nc(C(C)=O)c2cc(OCc3ncccn3)ccc21 [Example 13, (1R,3S,5R)-2-{2-[3-Acetyl-5-(pyrimidin-2-ylmethoxy)-indazol-1-yl]-acetyl}-2-aza-bicyclo[3.1.0]hexane-3-carboxylic acid ethylamide] | 0.504 µM |
| CC(=O)c1nn(CC(=O)N2[C@@H]3C[C@@H]3C[C@H]2C(=O)NCCCOC(F)(F)F)c2ccc(OCc3ncccn3)cc12 [Example 14, (1R,3S,5R)-2-{2-[3-Acetyl-5-(pyrimidin-2-ylmethoxy)-indazol-1-yl]-acetyl}-2-aza-bicyclo[3.1.0]hexane-3-carboxylic acid (3-trifluoro methoxy-propyl)-amide] | 0.127 µM |
| CC(=O)c1nn(CC(=O)N2[C@@H]3C[C@@H]3C[C@H]2C(=O)NCCOC(F)(F)F)c2ccc(OCc3ncccn3)cc12 [Example 15, (1R,3S,5R)-2-{2-[3-Acetyl-5-(pyrimidin-2-ylmethoxy)-indazol-1-yl]-acetyl}-2-aza-bicyclo[3.1.0]hexane-3-carboxylic acid (2-trifluoro methoxy-ethyl)-amide] | 0.021 µM |
| CC(=O)c1nn(CC(=O)N2[C@@H]3C[C@@H]3C[C@H]2C(=O)NCCOC(F)(F)C(F)(F)F)c2ccc(OCc3ncccn3)cc12 [Example 16, (1R,3S,5R)-2-{2-[3-Acetyl-5-(pyrimidin-2-ylmethoxy)-indazol-1-yl]-acetyl}-2-aza-bicyclo[3.1.0]hexane-3-carboxylic acid (2-penta fluoroethyloxy-ethyl)-amide] | 0.152 µM |
| CC[C@@H](C)NC(=O)[C@@H]1C[C@H]2C[C@H]2N1C(=O)Cn1nc(C(C)=O)c2cc(OCc3ncccn3)ccc21 [Example 17, (1R,3S,5R)-2-{2-[3-Acetyl-5-(pyrimidin-2-ylmethoxy)-indazol-1-yl]-acetyl}-2-aza-bicyclo[3.1.0]hexane-3-carboxylic acid ((R)-sec-butyl)-amide] | 0.333 µM |
| CCNC(=O)[C@@H]1C[C@H]2C[C@H]2N1C(=O)Cn1nc(C(N)=O)c2cc(OCc3ncccn3)ccc21 [Example 18, 1-[2-((1R,3S,5R)-3-Ethylcarbamoyl-2-aza-bicyclo[3.1.0]hex-2-yl)-2-oxo-ethyl]-5-(pyrimidin-2-ylmethoxy)-1H-indazole-3-carboxylic acid amide] | 2.89 µM |
| CC[C@H](C)NC(=O)[C@@H]1C[C@H]2C[C@H]2N1C(=O)Cn1nc(C(C)=O)c2cc(OCc3ncccn3)ccc21 [Example 19, (1R,3S,5R)-2-{2-[3-Acetyl-5-(pyrimidin-2-ylmethoxy)-indazol-1-yl]-acetyl}-2-aza-bicyclo[3.1.0]hexane-3-carboxylic acid ((S)-sec-butyl)-amide] | 0.929 µM |
| CC(=O)c1nn(CC(=O)N2[C@@H]3C[C@@H]3C[C@H]2C(=O)NC(C)C)c2ccc(OCc3ncccn3)cc12 [Example 20, (1R,3S,5R)-2-{2-[3-Acetyl-5-(pyrimidin-2-ylmethoxy)-indazol-1-yl]-acetyl}-2-aza-bicyclo[3.1.0]hexane-3-carboxylic acid isopropyl amide] | 0.328 µM |
| CC(C)(C)CCNC(=O)[C@@H]1C[C@H]2C[C@H]2N1C(=O)Nc1cn(C(N)=O)c2ccccc12 [Example 21, (1R,3S,5R)-2-Aza-bicyclo[3.1.0]hexane-2,3-dicarboxylic acid 2-[(1-carbamoyl-1H-indol-3-yl)-amide]3-[(3,3-dimethyl-butyl)-amide]] | 0.058 µM |
| C[Si](C)(C)CCNC(=O)[C@@H]1C[C@H]2C[C@H]2N1C(=O)Nc1cn(C(N)=O)c2ccccc12 [Example 22, (1R,3S,5R)-2-Aza-bicyclo [3.1.0]hexane-2,3-dicarboxylic acid 2-[(1-carbamoyl-1H-indol-3-yl)-amide] 3-[(2-trimethylsilanyl-ethyl)-amide]] | 0.057 µM |
| NC(=O)n1cc(NC(=O)N2[C@@H]3C[C@@H]3C[C@H]2C(=O)NCCOC(F)(F)F)c2ccccc21 [Example 23, (1R,3S,5R)-2-Aza-bicyclo [3.1.0]hexane-2,3-dicarboxylic acid 2-[(1-carbamoyl-1H-indol-3-yl)-amide] 3-[(2-trifluoromethoxy-ethyl)-amide]] | 0.427 µM |
| CCNC(=O)[C@@H]1C[C@H]2C[C@H]2N1C(=O)Nc1cn(C(N)=O)c2ccccc12 [Example 24, (1R,3S,5R)-2-Aza-bicyclo [3.1.0]hexane-2,3-dicarboxylic acid 2-[(1-carbamoyl-1H-indol-3-yl)-amide] 3-ethylamide] | 1.75 µM |
| NC(=O)n1cc(NC(=O)N2[C@@H]3C[C@@H]3C[C@H]2C(=O)NCCCOC(F)(F)F)c2ccccc21 [Example 25, (1R,3S,5R)-2-Aza-bicyclo [3.1.0]hexane-2,3-dicarboxylic acid 2-[(1-carbamoyl-1H-indol-3-yl)-amide] 3-[(3-trifluoromethoxy-propyl)-amide]] | 0.912 µM |
| NC(=O)n1cc(NC(=O)N2[C@@H]3C[C@@H]3C[C@H]2C(=O)NCCCCOC(F)(F)F)c2ccccc21 [Example 26, (1R,3S,5R)-2-Aza-bicyclo [3.1.0]hexane-2,3-dicarboxylic acid 2-[(1-carbamoyl-1H-indol-3-yl)-amide] 3-[(4-trifluoromethoxy-butyl)-amide]] | 1.39 µM |
| NC(=O)n1cc(NC(=O)N2[C@@H]3C[C@@H]3C[C@H]2C(=O)NCCOC(F)(F)C(F)(F)F)c2ccccc21 [Example 27, (1R,3S,5R)-2-Aza-bicyclo [3.1.0]hexane-2,3-di arboxylic acid 2-[(1-carbamoyl-1H-indol-3-yl)-amide] 3-[(2-pentafluoroethyloxy-ethyl)-amide]] | 1.97 µM |
